Reference: US20220143224A1, “MRI CONTRAST AGENT FOR USE IN THE DIAGNOSIS OF EARLY CHANGES IN THE ENDOTHELIUM OF BLOOD VESSELS” (UNIWERSYTET JAGIELLONSKI, priority 2019, published 2022)

What was measured:
[1] = tested on: abdominal aorta (AA) in ApoE/LDLR−/− mice; assay: MRI-based endothelium-dependent response to acetylcholine in abdominal aorta; type: in vivo; conditions: for AA volume change: intraperitoneal Ach, 25 minutes after administration; for change in AA volume: paradoxical vasoconstriction
Description: (§1) The experiments were performed using female ApoE/LDLR−/− mice of different ages: 4-, 6-, 8-, 12- and 28-week-old(19) in comparison to control young (8-week-old) mice (C57BL/6) without endothelial dysfunction. All mice (body weight 20-30 g) were housed under standard pathogen-free conditions (LD: 12/12, humidity: 60%, temperature: 23° C.).
(§2) MRI experiments were carried out using a 9.4 T scanner (BioSpec 94/20 USR, Bruker, Germany). During the experiment, mice were anesthetized using isoflurane (Aerrane, Baxter Sp. z o.o., Poland, 1.5% by volume) in an oxygen and air mixture (1:2). Cardiac activity, respiration rate and body temperature (maintained at 37° C., using circulating warm water) were monitored using Monitoring and Gating System (SA Inc., Stony Brook, N.Y., USA). Mice were imaged in the supine position to test endothelial function and permeability in various blood vessels.
(§3) Endothelium-dependent response to acetylcholine (Ach), expressed as changes in vessel volume, was assessed in the brachiocephalic artery (BCA) visible on the 3D image of the aortic arch (A) and in the abdominal aorta (AA) positioned on the sagittal view of the mouse (B). Assessment of vessel response to flow-mediated dilation (FMD), also expressed as changes in vessel volume, was performed in the femoral artery (FA), visible on the 3D image of the left hind limb (D). Pixels for which T1 had changed more than 50% after CA (Npx50) were marked in red on a representative cross-sectional image of blood vessels arising from the aortic arch (C).
To assess the sensitivity of endothelial dysfunction detection using the new contrast agent, being an invention, impaired endothelial function in ApoE/LDLR−/− mice was also assessed by other MRI-based techniques; detection of endothelium-dependent response to acetylcholine (FIG. 5) and measurement of increase in flow after short-term vessel occlusion (FMD, FIG. 6). As described in our recent publication(22), endothelium-dependent response to acetylcholine (Ach, FIG. 5B) in abdominal aorta (AA) is the most sensitive in vivo method to detect changes in endothelial phenotype. […]
Changes in the end-diastolic volume of brachiocephalic artery (A: BCA-ACH) and abdominal aorta (B: AA-ACH) 25 minutes after administration of acetylcholine in ApoE/LDLR−/− mice (white columns) of different ages: 4-week-old ApoE/LDLR−/− mice, 6-week-old ApoE/LDLR−/− mice, 8-week-old ApoE/LDLR−/− mice, 12-week-old ApoE/LDLR−/− mice, 28-week-old ApoE/LDLR−/− mice as compared to 8-week-old control C57BL/6 mice, (C57_8W, n=4, black columns). Statistics: one-way ANOVA followed by Tukey's post hoc test (normality was assessed using the Shapiro-Wilk test); *p<0.05, **p<0.01, ***p<0.001.

[2] = tested on: brachiocephalic artery (BCA) in ApoE/LDLR−/− mice; assay: MRI-based endothelium-dependent response to acetylcholine in brachiocephalic artery; type: in vivo
Description: as §1, §2, §3
To assess the sensitivity of endothelial dysfunction detection using the new contrast agent, being an invention, impaired endothelial function in ApoE/LDLR−/− mice was also assessed by other MRI-based techniques; detection of endothelium-dependent response to acetylcholine (FIG. 5) and measurement of increase in flow after short-term vessel occlusion (FMD, FIG. 6). […]

CC(=O)OCC[N+](C)(C)C [Ach, acetylcholine]
AA volume change ([1]; 4-week-old ApoE/LDLR−/− mice): about 23%
change in AA volume ([1]; 12-week-old ApoE/LDLR−/− mice): about −8%
change in AA volume ([1]; 28-week-old ApoE/LDLR−/− mice): ~−23%
AA volume change ([1]; control mice (8-week-old C57BL/6)): about 34%
changes in BCA volume ([2]; 4 to 8-week-old ApoE/LDLR−/− mice): approximately 10%
volume change in the BCA ([2]; 8-week-old control mice (C57BL/6)): 11.26%
BCA volume changes ([2]; 12-week-old ApoE/LDLR−/− mice): about 2%
